Columns and labels:
Meprin A subunit beta [1] = molecular target: T1, Meprin A subunit beta (Homo sapiens, UniProt Q16820); test: Inhibition of recombinant human meprin beta expressed in yeast using Abz-YVAEAPK(Dnp)G-OH as substrate by fluorescence assay
T1 sequence (Q16820 whole entry): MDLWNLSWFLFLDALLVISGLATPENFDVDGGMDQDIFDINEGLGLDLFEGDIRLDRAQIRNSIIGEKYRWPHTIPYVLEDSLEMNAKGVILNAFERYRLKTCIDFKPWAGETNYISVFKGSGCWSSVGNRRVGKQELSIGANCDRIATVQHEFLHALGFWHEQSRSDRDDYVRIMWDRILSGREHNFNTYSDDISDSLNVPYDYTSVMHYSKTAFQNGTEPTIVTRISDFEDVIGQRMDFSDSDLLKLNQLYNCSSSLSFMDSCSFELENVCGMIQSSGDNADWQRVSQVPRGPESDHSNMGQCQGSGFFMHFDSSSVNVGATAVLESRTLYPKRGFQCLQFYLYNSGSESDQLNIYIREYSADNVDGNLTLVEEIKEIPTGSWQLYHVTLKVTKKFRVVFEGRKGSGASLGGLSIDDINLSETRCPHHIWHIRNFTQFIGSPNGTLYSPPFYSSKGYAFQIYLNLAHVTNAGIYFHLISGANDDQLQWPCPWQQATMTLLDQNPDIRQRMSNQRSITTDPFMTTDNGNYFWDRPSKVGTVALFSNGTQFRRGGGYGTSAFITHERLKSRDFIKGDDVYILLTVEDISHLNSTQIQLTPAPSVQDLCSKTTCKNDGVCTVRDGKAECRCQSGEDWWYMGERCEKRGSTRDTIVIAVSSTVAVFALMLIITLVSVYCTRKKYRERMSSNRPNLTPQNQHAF

[2] = molecular target: T2, Matrix metalloproteinase-9 (Homo sapiens, UniProt P14780); test: Inhibition of APMA-activated recombinant human MMP9 expressed in CHO cells at 200 uM using Mca-PLGL-(DapDnp)-AR-NH2 as substrate by fluorescence assay
T2 sequence (P14780 whole entry): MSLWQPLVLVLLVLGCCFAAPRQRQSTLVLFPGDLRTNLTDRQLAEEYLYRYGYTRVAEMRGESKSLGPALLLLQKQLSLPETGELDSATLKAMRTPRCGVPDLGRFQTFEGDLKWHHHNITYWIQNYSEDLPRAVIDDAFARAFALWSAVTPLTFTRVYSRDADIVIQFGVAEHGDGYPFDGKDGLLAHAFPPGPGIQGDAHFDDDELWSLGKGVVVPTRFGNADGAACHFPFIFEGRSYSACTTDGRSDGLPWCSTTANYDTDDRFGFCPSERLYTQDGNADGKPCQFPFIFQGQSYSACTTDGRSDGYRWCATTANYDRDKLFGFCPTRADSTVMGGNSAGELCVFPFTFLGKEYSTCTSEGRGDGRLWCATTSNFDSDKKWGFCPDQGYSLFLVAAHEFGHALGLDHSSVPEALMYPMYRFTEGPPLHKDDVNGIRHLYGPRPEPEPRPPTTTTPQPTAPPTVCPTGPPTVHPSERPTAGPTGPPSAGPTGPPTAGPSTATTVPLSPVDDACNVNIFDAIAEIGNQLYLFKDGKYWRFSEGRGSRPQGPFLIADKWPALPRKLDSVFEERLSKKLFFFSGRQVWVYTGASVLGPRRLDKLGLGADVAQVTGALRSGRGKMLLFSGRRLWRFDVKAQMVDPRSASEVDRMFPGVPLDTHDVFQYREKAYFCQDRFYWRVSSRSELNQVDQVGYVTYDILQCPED

Homo sapiens [3] = organism: Homo sapiens; test: Selectivity ratio of IC50 for recombinant human C-terminal His10-tagged ADAM10 expressed in baculovirus infected Sf21 cells to IC50 for recombinant human meprin beta expressed in yeast
Homo sapiens [4] = organism: Homo sapiens; test: Selectivity ratio of IC50 APMA-activated recombinant human MMP2 expressed in CHO cells to IC50 for recombinant human meprin beta expressed in yeast; type: cell-based
[5] = molecular target: T3, Disintegrin and metalloproteinase domain-containing protein 17 (Homo sapiens, UniProt P78536); test: Inhibition of recombinant human C-terminal His6-tagged ADAM17 expressed in baculovirus infected Sf21 cells at 200 uM using Abz-LANAVRSSSR-(DapDnp)-NH2 as substrate by fluorescence assay
T3 sequence (P78536 whole entry, the tested form may be a part): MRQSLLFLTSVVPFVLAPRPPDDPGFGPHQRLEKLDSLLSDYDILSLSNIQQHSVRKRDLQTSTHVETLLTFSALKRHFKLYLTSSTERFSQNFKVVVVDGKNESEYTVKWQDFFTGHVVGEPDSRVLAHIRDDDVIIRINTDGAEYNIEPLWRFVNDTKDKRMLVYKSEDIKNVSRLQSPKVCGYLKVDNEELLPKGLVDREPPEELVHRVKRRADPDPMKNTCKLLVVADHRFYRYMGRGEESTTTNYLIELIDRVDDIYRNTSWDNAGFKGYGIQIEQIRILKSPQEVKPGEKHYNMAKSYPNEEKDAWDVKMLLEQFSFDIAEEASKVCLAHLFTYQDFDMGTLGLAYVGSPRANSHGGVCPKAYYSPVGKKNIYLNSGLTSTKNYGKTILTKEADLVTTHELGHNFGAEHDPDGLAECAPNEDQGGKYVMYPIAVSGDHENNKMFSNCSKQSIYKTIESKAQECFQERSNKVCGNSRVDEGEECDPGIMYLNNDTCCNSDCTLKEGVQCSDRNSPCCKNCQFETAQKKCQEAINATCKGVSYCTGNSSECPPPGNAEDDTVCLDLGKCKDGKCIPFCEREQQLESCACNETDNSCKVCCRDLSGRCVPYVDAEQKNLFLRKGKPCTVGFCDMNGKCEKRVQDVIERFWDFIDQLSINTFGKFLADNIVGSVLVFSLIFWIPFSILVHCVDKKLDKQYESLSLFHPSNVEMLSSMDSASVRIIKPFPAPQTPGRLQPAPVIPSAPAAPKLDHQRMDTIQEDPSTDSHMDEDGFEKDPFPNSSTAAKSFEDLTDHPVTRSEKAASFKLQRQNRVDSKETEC

[6] = molecular target: T4, 72 kDa type IV collagenase (Homo sapiens, UniProt P08253); test: Inhibition of APMA-activated recombinant human MMP2 expressed in CHO cells at 200 uM using Mca-PLGL-(DapDnp)-AR-NH2 as substrate by fluorescence assay
T4 sequence (P08253 whole entry): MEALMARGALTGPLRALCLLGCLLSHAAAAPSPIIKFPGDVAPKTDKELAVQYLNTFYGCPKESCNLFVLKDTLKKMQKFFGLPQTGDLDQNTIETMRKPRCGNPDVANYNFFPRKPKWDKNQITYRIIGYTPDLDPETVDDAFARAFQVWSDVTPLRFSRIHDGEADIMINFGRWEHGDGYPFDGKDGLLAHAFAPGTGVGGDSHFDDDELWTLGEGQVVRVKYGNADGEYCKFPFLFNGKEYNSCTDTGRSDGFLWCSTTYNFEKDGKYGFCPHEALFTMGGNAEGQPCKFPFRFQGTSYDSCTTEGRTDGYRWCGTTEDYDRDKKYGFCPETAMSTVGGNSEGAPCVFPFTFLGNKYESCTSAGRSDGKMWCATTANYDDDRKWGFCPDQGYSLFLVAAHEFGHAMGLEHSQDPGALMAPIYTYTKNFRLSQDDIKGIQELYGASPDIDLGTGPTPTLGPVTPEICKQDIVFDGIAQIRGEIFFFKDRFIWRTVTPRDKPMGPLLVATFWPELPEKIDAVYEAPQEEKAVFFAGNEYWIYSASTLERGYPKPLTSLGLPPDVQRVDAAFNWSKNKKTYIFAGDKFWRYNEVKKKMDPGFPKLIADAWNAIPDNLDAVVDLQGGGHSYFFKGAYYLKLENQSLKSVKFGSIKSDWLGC

Meprin A subunit alpha = molecular target: T5, Meprin A subunit alpha (Homo sapiens, UniProt Q16819); test: Inhibition of recombinant human meprin alpha expressed in S2 insect cells using Abz-YVADAPK(Dnp)G-OH as substrate by fluorescence assay
T5 sequence (Q16819 whole entry): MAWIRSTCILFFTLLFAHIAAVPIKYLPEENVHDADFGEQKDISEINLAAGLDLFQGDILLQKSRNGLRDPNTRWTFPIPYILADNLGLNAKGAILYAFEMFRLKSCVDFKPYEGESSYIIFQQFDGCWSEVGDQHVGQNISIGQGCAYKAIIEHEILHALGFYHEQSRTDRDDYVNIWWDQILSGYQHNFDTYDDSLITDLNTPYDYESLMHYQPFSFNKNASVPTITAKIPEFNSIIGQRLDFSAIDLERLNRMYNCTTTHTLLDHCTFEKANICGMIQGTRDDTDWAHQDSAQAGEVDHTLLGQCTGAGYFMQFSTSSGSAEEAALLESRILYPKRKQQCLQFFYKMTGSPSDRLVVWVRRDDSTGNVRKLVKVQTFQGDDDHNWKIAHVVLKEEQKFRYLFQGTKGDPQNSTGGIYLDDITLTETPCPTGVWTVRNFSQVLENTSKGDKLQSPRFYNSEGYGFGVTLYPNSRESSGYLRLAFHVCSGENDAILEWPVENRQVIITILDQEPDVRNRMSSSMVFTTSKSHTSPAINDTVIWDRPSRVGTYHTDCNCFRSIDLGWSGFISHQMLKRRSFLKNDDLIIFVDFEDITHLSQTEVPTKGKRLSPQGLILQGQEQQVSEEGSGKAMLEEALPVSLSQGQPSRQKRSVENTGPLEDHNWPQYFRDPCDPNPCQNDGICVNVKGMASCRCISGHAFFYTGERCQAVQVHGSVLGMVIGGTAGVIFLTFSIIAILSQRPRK

Collagenase 3 [7] = molecular target: T6, Collagenase 3 (Homo sapiens, UniProt P45452); test: Inhibition of APMA-activated recombinant human MMP13 expressed in mouse NS0 cells at 200 uM using Mca-PLGL-(DapDnp)-AR-NH2 as substrate by fluorescence assay
[8] = molecular target: T7, Disintegrin and metalloproteinase domain-containing protein 10 (Homo sapiens, UniProt O14672); test: Inhibition of recombinant human C-terminal His10-tagged ADAM10 expressed in baculovirus infected Sf21 cells at 200 uM using Abz-LANAVRSSSR-(DapDnp)-NH2 as substrate by fluorescence assay
T7 sequence (O14672 whole entry): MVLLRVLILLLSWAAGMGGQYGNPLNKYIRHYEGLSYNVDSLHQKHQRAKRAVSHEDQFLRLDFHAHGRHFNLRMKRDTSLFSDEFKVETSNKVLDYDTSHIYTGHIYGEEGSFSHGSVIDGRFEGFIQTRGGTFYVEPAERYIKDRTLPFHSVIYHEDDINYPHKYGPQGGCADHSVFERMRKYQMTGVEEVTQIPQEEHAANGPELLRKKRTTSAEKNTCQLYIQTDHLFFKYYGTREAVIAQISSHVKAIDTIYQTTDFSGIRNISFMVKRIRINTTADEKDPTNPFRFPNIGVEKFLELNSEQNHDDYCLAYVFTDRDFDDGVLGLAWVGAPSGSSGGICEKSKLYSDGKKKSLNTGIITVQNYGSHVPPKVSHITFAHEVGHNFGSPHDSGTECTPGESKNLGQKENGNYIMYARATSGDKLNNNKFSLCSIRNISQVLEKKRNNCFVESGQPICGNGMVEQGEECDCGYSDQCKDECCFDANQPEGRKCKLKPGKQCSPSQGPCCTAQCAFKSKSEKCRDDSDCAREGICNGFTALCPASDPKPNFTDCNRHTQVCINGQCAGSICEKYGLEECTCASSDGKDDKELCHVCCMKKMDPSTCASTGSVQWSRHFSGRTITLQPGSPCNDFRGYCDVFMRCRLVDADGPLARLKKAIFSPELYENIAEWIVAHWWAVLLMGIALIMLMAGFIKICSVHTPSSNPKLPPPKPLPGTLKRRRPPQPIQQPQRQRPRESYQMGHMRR

Homo sapiens [9] = organism: Homo sapiens; test: Selectivity ratio of IC50 for recombinant human meprin alpha expressed in S2 insect cells to IC50 for recombinant human meprin beta expressed in yeast
Meprin A subunit beta [10] = molecular target: T1, Meprin A subunit beta; test: Inhibition of human meprin beta expressed in baculovirus infected BTI-TN-5B1-4 insect cells using N-benzoyl-L-tyrosylp-aminobenzoic acid as substrate
Meprin A subunit beta [11] = molecular target: T1, Meprin A subunit beta; test: Inhibition of recombinant human meprin beta expressed in baculovirus infected Sf9 insect cells using (MCA)-EDEDED-(K-epsilon-dnp) as substrate by fluorescence assay
[12] = molecular target: T4, 72 kDa type IV collagenase; test: Inhibition of APMA-activated recombinant human MMP2 expressed in CHO cells using Mca-PLGL-(DapDnp)-AR-NH2 as substrate by fluorescence assay
Collagenase 3 [13] = molecular target: T6, Collagenase 3; test: Inhibition of APMA-activated recombinant human MMP13 expressed in mouse NS0 cells using Mca-PLGL-(DapDnp)-AR-NH2 as substrate by fluorescence assay
[14] = molecular target: T7, Disintegrin and metalloproteinase domain-containing protein 10; test: Inhibition of recombinant human C-terminal His10-tagged ADAM10 expressed in baculovirus infected Sf21 cells using Abz-LANAVRSSSR-(DapDnp)-NH2 as substrate by fluorescence assay
[15] = molecular target: T3, Disintegrin and metalloproteinase domain-containing protein 17; test: Inhibition of recombinant human C-terminal His6-tagged ADAM17 expressed in baculovirus infected Sf21 cells using Abz-LANAVRSSSR-(DapDnp)-NH2 as substrate by fluorescence assay
[16] = molecular target: T2, Matrix metalloproteinase-9; test: Inhibition of APMA-activated recombinant human MMP9 expressed in CHO cells using Mca-PLGL-(DapDnp)-AR-NH2 as substrate by fluorescence assay

## O=C(CNS(=O)(=O)c1ccc(Cl)cc1)NO
Meprin A subunit beta [1]
  IC50: 17200 nM

## O=C(CCNS(=O)(=O)c1cccc(C(=O)O)c1)NO
Meprin A subunit beta [1]
  IC50: 220 nM

## O=C(CN(Cc1cccc(C(=O)O)c1)S(=O)(=O)c1cccc(C(=O)O)c1)NO
[2]
  inhibition (INH): Not Active
Homo sapiens [3]
  Ratio IC50: > 100
Homo sapiens [4]
  Ratio IC50: > 100
[5]
  inhibition (INH): Not Active
[6]
  inhibition (INH): Not Active
Meprin A subunit alpha
  IC50: 27400 nM
Collagenase 3 [7]
  inhibition (INH): Not Active
[8]
  inhibition (INH): Not Active
Homo sapiens [9]
  Ratio IC50: 500

## O=C(CCNS(=O)(=O)c1ccc(C(=O)O)cc1)NO
Meprin A subunit beta [1]
  IC50: 340 nM

## COc1ccc(S(=O)(=O)N(C)CC(=O)NO)cc1
Meprin A subunit beta [1]
  IC50: 32500 nM

## CCCCC[C@H](CC(=O)NO)C(=O)N[C@H](C(=O)N1CCC[C@H]1CO)C(C)C [ACTINONIN]
Meprin A subunit beta [10]
  Ki: 2000 nM

## O=C(CCNS(=O)(=O)c1cc(Cl)c(O)c(Cl)c1)NO
Meprin A subunit beta [1]
  IC50: 400 nM

## O=C(CN(Cc1cccc(C(=O)O)c1)S(=O)(=O)c1ccc(C(=O)O)cc1)NO
Meprin A subunit beta [1]
  IC50: 320 nM

## COc1ccc(S(=O)(=O)N(CCc2ccccc2)CC(=O)NO)cc1
Meprin A subunit beta [1]
  IC50: 42900 nM

## O=C(Nc1cc(C(=O)Nc2ccc(S(=O)(=O)O)cc2S(=O)(=O)O)cc(C(=O)Nc2ccc(S(=O)(=O)O)cc2S(=O)(=O)O)c1)Nc1cc(C(=O)Nc2ccc(S(=O)(=O)O)cc2S(=O)(=O)O)cc(C(=O)Nc2ccc(S(=O)(=O)O)cc2S(=O)(=O)O)c1
Meprin A subunit beta [11]
  Ki: 22 nM

## COc1ccc(S(=O)(=O)N(CC(=O)NO)Cc2cccc(C(=O)O)c2)cc1
Homo sapiens [3]
  Ratio IC50: > 100
[12]
  IC50: 2 nM
Meprin A subunit alpha
  IC50: 3290 nM
Collagenase 3 [13]
  IC50: 0.3 nM
[14]
  IC50: 11700 nM
Homo sapiens [9]
  Ratio IC50: 60
[15]
  IC50: 1240 nM
[16]
  IC50: 50 nM

## COc1ccc(S(=O)(=O)N(CC(=O)NO)Cc2ccc(C(=O)O)cc2)cc1
Meprin A subunit beta [1]
  IC50: 980 nM

## O=C(CNS(=O)(=O)c1cccc(C(=O)O)c1)NO
Meprin A subunit beta [1]
  IC50: 310 nM

## O=C(CNS(=O)(=O)c1cc(Cl)c(O)c(Cl)c1)NO
Meprin A subunit beta [1]
  IC50: 430 nM

## O=C(O)Cc1ccc(S(=O)(=O)NCC(=O)NO)cc1
Meprin A subunit beta [1]
  IC50: 5030 nM
